We go through one compound from patent US20160324863A1, “TARGETED CANCER TREATMENT BY HSP90 INHIBITORS GANETESPIB AND NVP-AUY922” (SYNTA PHARMACEUTICALS CORP., priority 2014, published 2016).

Series [1] deals with LB831-BLC bladder cancer cell line. The series is described as follows: CellTiter-Glo viability assay, LB831-BLC. Format: cell-based. To be noted: FGFR3 status WT, 72 hours, read-out: Ganetespib IC50. The protocol: (§1) Cellular viability was assessed using the CellTiter-Glo Luminescent Cell Viability Assay (Promega) according to manufacturer protocols. Bladder cancer cell lines were seeded into 96-well plates based on optimal growth rates determined empirically for each line. Twenty-four hours after plating, cells were dosed with graded concentrations of ganetespib for 72 hours. CellTiter-Glo was added (50% v/v) to the cells, and the plates incubated for 10 minutes prior to luminescent detection in a SpectraMax Plus 384 microplate reader (Molecular Devices). Data were normalized to percent of control and IC50 values used to determine the sensitivity of each line. For the comparative analyses with ganetespib and BGJ398, RT112 cells were treated with graded concentrations of each compound for 72 hours and cell viability measured as above. For the evaluation of apoptotic induction, caspase activity was assessed using the Caspase-Glo 3/7 assay (Promega) according to manufacturer protocols. Twenty-four hours after plating, RT112 cells were treated with graded concentrations of ganetespib for 24 hours. Caspase-Glo was added to cells (50% v/v) and the plates incubated for 1 hour prior to luminescent detection.

Series [2] concerns RT4 bladder cancer cell line. The series is described as follows: CellTiter-Glo viability assay, RT4. It is filed as cell-based. The protocol:
as §1
(In general: Cellular ATP, detected with luciferase, serves as a proxy for viable cell number.)

For a further series, the system named is SW1463 cells. The series is described as follows: LC-MS/MS bioanalysis of ganetespib in SW1463 cells. It is filed as in vitro ADME, human. To be noted: 1 μM ganetespib, 8 hr. The protocol: Colon cancer cells were treated with 1 μM ganetespib for 5, 15, 30, 60 or 480 minutes. At each time point, media was collected and cell lysates were generated for subsequent bioanalysis of secreted and intracellular concentrations of ganetespib and its glucuronides. Equal protein concentrations from cell lysates or equal volumes of media were used for the bioanalysis. Samples were extracted by protein precipitation and analyzed by LC-MS/MS using an Agilent 1100 HPLC interfaced to an API 4000 tandem mass spectrometer (Applied Biosystems). A Phenomenex Kinetex 2.6 μm C18 (30×2.1 mm) column was used with a run time of 3.5 min per sample.

Read-outs that look alike come from different tables or passages of the source. A value given as a limit tells only on which side of the number the result lay.

In general, IC50 refers to the concentration that inhibits the measured activity by half. On to `CC(C)c1cc(-c2n[nH]c(=O)n2-c2ccc3c(ccn3C)c2)c(O)cc1O` [ganetespib], for which the half-maximal inhibitory concentration (IC50) was 34 nM in series [1]; greater than 1000 nM in series [2] (72 hours (FIG. 8), read-out: IC50 values); 1730 nM in series [2] (FGFR3 status FGFR3-TACC3, 72 hours, read-out: Ganetespib IC50). Besides, the ganetespib present with SW1463 cells is roughly 190 nM.
